Source: patent US9695155B2, “Herbicidal substituted pyrimidinyloxy benzene compounds” (E. I. DU PONT DE NEMOURS AND COMPANY, priority 2013, dated 2017)

Experiments:
barnyardgrass = experiment: Test A preemergence; assay type: in vivo, Echinochloa crus-galli; conditions: Echinochloa crus-galli, pre-emergence, 240 h
Method in brief: (§1)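 Pre- and postemergence greenhouse screen. Soil: loam + sand. Spray carrier: solvent mixture, non-phytotoxic, with surfactant. Post timing at 1–2 leaves, height 2–10 cm. Readout: visual injury on a 0–100 scale roughly 10 days after application, untreated plants as reference.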

pigweed [1] = experiment: Test A preemergence; assay type: in vivo, Amaranthus retroflexus; conditions: Amaranthus retroflexus, pre-emergence
Method in brief: as §1

velvetleaf = experiment: Test A preemergence; assay type: in vivo, Abutilon theophrasti
Method in brief: as §1

large (Lg) crabgrass [2] = experiment: Test A postemergence; assay type: in vivo, Digitaria sanguinalis; conditions: Digitaria sanguinalis, post-emergence, 240 h
Method in brief: as §1

giant foxtail [3] = experiment: Test A postemergence; assay type: in vivo, Setaria faberii; conditions: Setaria faberi, post-emergence, 240 h
Method in brief: as §1

morningglory = experiment: Test A postemergence; assay type: in vivo, Ipomoea spp.; conditions: Ipomoea, post-emergence, 240 h
Method in brief: as §1

pigweed [4] = experiment: Test A postemergence; assay type: in vivo, Amaranthus retroflexus; conditions: Amaranthus retroflexus, post-emergence
Method in brief: as §1

corn [5] = experiment: Test A postemergence; assay type: in vivo, Zea mays; conditions: Zea mays, post-emergence, 240 h
Method in brief: as §1

large (Lg) crabgrass [6] = experiment: Test C preemergence; assay type: in vivo, Digitaria sanguinalis; conditions: Digitaria sanguinalis, pre-emergence
Method in brief: (§2)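 Sown in loam/sand → sprayed pre-emergence; or grown to 1–4 leaves in peat mix → sprayed post-emergence. Same solvent/surfactant formulation both ways. Greenhouse 13–15 d. Score 0–100 visual.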

johnsongrass [7] = experiment: Test C preemergence; assay type: in vivo, Sorghum halepense; conditions: Sorghum halepense, pre-emergence
Method in brief: as §2

lambsquarters = experiment: Test C preemergence; assay type: in vivo, Chenopodium album; conditions: Chenopodium album, pre-emergence
Method in brief: as §2

ragweed = experiment: Test C preemergence; assay type: in vivo, Ambrosia elatior; conditions: Ambrosia artemisiifolia, pre-emergence
Method in brief: as §2

galium = experiment: Test C postemergence; assay type: in vivo, Galium aparine; conditions: Galium, post-emergence
Method in brief: as §2

corn [8] = experiment: Test C postemergence; assay type: in vivo, Zea mays; conditions: Zea mays, post-emergence
Method in brief: as §2

giant foxtail [9] = experiment: Test C postemergence; assay type: in vivo, Setaria faberii; conditions: Setaria faberi, post-emergence
Method in brief: as §2

johnsongrass [10] = experiment: Test C postemergence; assay type: in vivo, Sorghum halepense; conditions: Sorghum halepense, post-emergence
Method in brief: as §2

kochia = experiment: Test C postemergence; assay type: in vivo, Kochia scoparia; conditions: Bassia scoparia, post-emergence
Method in brief: as §2

chickweed = experiment: Test C postemergence; assay type: in vivo, Stellaria media; conditions: Stellaria media, post-emergence
Method in brief: as §2

[11] = 125 g ai/ha, 0 to 100 scale where 0 is no effect and 100 is complete control, read-out: Plant response rating, Pigweed
[12] = 125 g ai/ha, 0 to 100 scale where 0 is no effect and 100 is complete control

N#Cc1cccc(Oc2ncc(Br)cn2)c1-n1cc(C(F)(F)F)cn1 [Compound 59, 3-[(5-bromo-2-pyrimidinyl)oxy]-2-[4-(trifluoromethyl)-1H-pyrazol-1-yl]benzonitrile]
pest or weed control at 125 g/ha (barnyardgrass; 125 g ai/ha, 0 to 100 scale where 0 is no effect and 100 is complete control, read-out: Plant response rating, Barnyardgrass): 80%
pest or weed control at 500 g/ha (barnyardgrass; 500 g ai/ha, 0 to 100 scale, 0 no effect, 100 complete control, approx. 10 days, read-out: Barnyardgrass plant response rating): 100%
pest or weed control at 125 g/ha (pigweed [1]; [11]): 100%
pest or weed control at 500 g/ha (pigweed [1]; 240 h, 500 g ai/ha, 0 to 100 scale, 0 no effect, 100 complete control, approx. 10 days, read-out: Pigweed plant response rating): 100%
Plant response rating, Velvetleaf (velvetleaf; [12]): 100
pest or weed control at 500 g/ha (velvetleaf; Abutilon theophrasti, pre-emergence, 240 h, 500 g ai/ha, 0 to 100 scale, 0 no effect, 100 complete control, approx. 10 days, read-out: Velvetleaf plant response rating): 100%
pest or weed control at 125 g/ha (large (Lg) crabgrass [2]; 125 g ai/ha, 0 to 100 scale where 0 is no effect and 100 is complete control, read-out: Plant response rating, Crabgrass, Large): 100%
pest or weed control at 500 g/ha (large (Lg) crabgrass [2]; 500 g ai/ha, 0 to 100 scale, 0 no effect, 100 complete control, read-out: Plant response rating Crabgrass, Large): 100%
pest or weed control at 125 g/ha (giant foxtail [3]; 125 g ai/ha, 0 to 100 scale where 0 is no effect and 100 is complete control, read-out: Plant response rating, Foxtail, Giant): 100%
pest or weed control at 500 g/ha (giant foxtail [3]; 500 g ai/ha, 0 to 100 scale, 0 no effect, 100 complete control, read-out: Plant response rating Foxtail, Giant): 100%
pest or weed control at 125 g/ha (morningglory; 125 g ai/ha, 0 to 100 scale where 0 is no effect and 100 is complete control, read-out: Plant response rating, Morningglory): 90%
pest or weed control at 500 g/ha (morningglory; 500 g ai/ha, 0 to 100 scale, 0 no effect, 100 complete control, read-out: Plant response rating Morningglory): 100%
pest or weed control at 125 g/ha (pigweed [4]; [11]): 100%
pest or weed control at 500 g/ha (pigweed [4]; 240 h, 500 g ai/ha, 0 to 100 scale, 0 no effect, 100 complete control, read-out: Plant response rating Pigweed): 100%
Corn plant response rating (crop injury, 0 = no effect, 100 = complete kill) at 125 g/ha (corn [5]; [12]): 60%
plant injury at 500 g/ha (corn [5]; 500 g ai/ha, 0 to 100 scale, 0 no effect, 100 complete control, read-out: Plant response rating Corn): 100%
pest or weed control at 62 g/ha (large (Lg) crabgrass [6]; 62 g ai/ha, preemergence, scale 0 (no effect) to 100 (complete control), read-out: Crabgrass, Large plant response rating): 100%
pest or weed control at 125 g/ha (large (Lg) crabgrass [6]; 125 g ai/ha, preemergence, scale 0 (no effect) to 100 (complete control), read-out: Crabgrass, Large plant response rating): 100%
pest or weed control at 250 g/ha (large (Lg) crabgrass [6]; 250 g ai/ha, preemergence, scale 0 (no effect) to 100 (complete control), read-out: Crabgrass, Large plant response rating): 100%
pest or weed control at 31 g/ha (large (Lg) crabgrass [6]; Preemergence, 31 g ai/ha, scale 0 to 100, 0 no effect, 100 complete control, read-out: Plant response rating, Crabgrass, Large): 100%
pest or weed control at 62 g/ha (johnsongrass [7]; 62 g ai/ha, preemergence, scale 0 (no effect) to 100 (complete control), read-out: Johnsongrass plant response rating): 85%
pest or weed control at 125 g/ha (johnsongrass [7]; 125 g ai/ha, preemergence, scale 0 (no effect) to 100 (complete control), read-out: Johnsongrass plant response rating): 98%
pest or weed control at 250 g/ha (johnsongrass [7]; 250 g ai/ha, preemergence, scale 0 (no effect) to 100 (complete control), read-out: Johnsongrass plant response rating): 100%
pest or weed control at 31 g/ha (johnsongrass [7]; Preemergence, 31 g ai/ha, scale 0 to 100, 0 no effect, 100 complete control, read-out: Plant response rating, Johnsongrass): 60%
pest or weed control at 62 g/ha (lambsquarters; 62 g ai/ha, preemergence, scale 0 (no effect) to 100 (complete control), read-out: Lambsquarters plant response rating): 100%
pest or weed control at 125 g/ha (lambsquarters; 125 g ai/ha, preemergence, scale 0 (no effect) to 100 (complete control), read-out: Lambsquarters plant response rating): 100%
pest or weed control at 250 g/ha (lambsquarters; 250 g ai/ha, preemergence, scale 0 (no effect) to 100 (complete control), read-out: Lambsquarters plant response rating): 100%
pest or weed control at 31 g/ha (lambsquarters; Preemergence, 31 g ai/ha, scale 0 to 100, 0 no effect, 100 complete control, read-out: Plant response rating, Lambsquarters): 100%
pest or weed control at 62 g/ha (ragweed; 62 g ai/ha, preemergence, scale 0 (no effect) to 100 (complete control), read-out: Ragweed plant response rating): 95%
pest or weed control at 125 g/ha (ragweed; 125 g ai/ha, preemergence, scale 0 (no effect) to 100 (complete control), read-out: Ragweed plant response rating): 100%
pest or weed control at 250 g/ha (ragweed; 250 g ai/ha, preemergence, scale 0 (no effect) to 100 (complete control), read-out: Ragweed plant response rating): 100%
pest or weed control at 31 g/ha (ragweed; Preemergence, 31 g ai/ha, scale 0 to 100, 0 no effect, 100 complete control, read-out: Plant response rating, Ragweed): 90%
pest or weed control at 125 g/ha (galium; 125 g ai/ha, postemergence, read-out: Plant response rating (0 to 100), Galium): 90%
pest or weed control at 250 g/ha (galium; 250 g ai/ha, postemergence, read-out: Plant response rating (0 to 100), Galium): 90%
pest or weed control at 31 g/ha (galium; Postemergence, 31 g ai/ha, scale 0 to 100 (0 no effect, 100 complete control), 13 to 15 days, read-out: Plant response rating, Galium): 65%
pest or weed control at 62 g/ha (galium; Postemergence, 62 g ai/ha, scale 0 to 100 (0 no effect, 100 complete control), read-out: Plant response rating, Galium): 80%
plant injury at 125 g/ha (corn [8]; 125 g ai/ha, postemergence, read-out: Plant response rating (0 to 100), Corn): 15%
plant injury at 250 g/ha (corn [8]; 250 g ai/ha, postemergence, read-out: Plant response rating (0 to 100), Corn): 20%
Corn plant response rating (crop injury, 0 = no effect, 100 = complete kill) at 31 g/ha (corn [8]; Postemergence, 31 g ai/ha, scale 0 to 100 (0 no effect, 100 complete control), 13 to 15 days): 10%
Corn plant response rating (crop injury, 0 = no effect, 100 = complete kill) at 62 g/ha (corn [8]; Postemergence, 62 g ai/ha, scale 0 to 100 (0 no effect, 100 complete control)): 15%
pest or weed control at 125 g/ha (giant foxtail [9]; 125 g ai/ha, postemergence, read-out: Plant response rating (0 to 100), Foxtail, Giant): 45%
pest or weed control at 250 g/ha (giant foxtail [9]; 250 g ai/ha, postemergence, read-out: Plant response rating (0 to 100), Foxtail, Giant): 90%
pest or weed control at 31 g/ha (giant foxtail [9]; Postemergence, 31 g ai/ha, scale 0 to 100 (0 no effect, 100 complete control), 13 to 15 days, read-out: Plant response rating, Foxtail, Giant): 10%
pest or weed control at 62 g/ha (giant foxtail [9]; Postemergence, 62 g ai/ha, scale 0 to 100 (0 no effect, 100 complete control), read-out: Plant response rating, Foxtail, Giant): 45%
pest or weed control at 125 g/ha (johnsongrass [10]; 125 g ai/ha, postemergence, read-out: Plant response rating (0 to 100), Johnsongrass): 35%
pest or weed control at 250 g/ha (johnsongrass [10]; 250 g ai/ha, postemergence, read-out: Plant response rating (0 to 100), Johnsongrass): 85%
pest or weed control at 31 g/ha (johnsongrass [10]; Postemergence, 31 g ai/ha, scale 0 to 100 (0 no effect, 100 complete control), 13 to 15 days, read-out: Plant response rating, Johnsongrass): 15%
pest or weed control at 62 g/ha (johnsongrass [10]; Postemergence, 62 g ai/ha, scale 0 to 100 (0 no effect, 100 complete control), read-out: Plant response rating, Johnsongrass): 35%
pest or weed control at 125 g/ha (kochia; 125 g ai/ha, postemergence, read-out: Plant response rating (0 to 100), Kochia): 100%
pest or weed control at 250 g/ha (kochia; 250 g ai/ha, postemergence, read-out: Plant response rating (0 to 100), Kochia): 100%
pest or weed control at 31 g/ha (kochia; Postemergence, 31 g ai/ha, scale 0 to 100 (0 no effect, 100 complete control), 13 to 15 days, read-out: Plant response rating, Kochia): 95%
pest or weed control at 62 g/ha (kochia; Postemergence, 62 g ai/ha, scale 0 to 100 (0 no effect, 100 complete control), read-out: Plant response rating, Kochia): 100%
pest or weed control at 125 g/ha (chickweed; 125 g ai/ha, postemergence, read-out: Plant response rating (0 to 100), Chickweed): 80%
pest or weed control at 250 g/ha (chickweed; 250 g ai/ha, postemergence, read-out: Plant response rating (0 to 100), Chickweed): 98%
pest or weed control at 31 g/ha (chickweed; Postemergence, 31 g ai/ha, scale 0 to 100 (0 no effect, 100 complete control), 13 to 15 days, read-out: Plant response rating, Chickweed): 40%
pest or weed control at 62 g/ha (chickweed; Postemergence, 62 g ai/ha, scale 0 to 100 (0 no effect, 100 complete control), read-out: Plant response rating, Chickweed): 70%
